The results in this text go back to patent US20080125488A1, “Lactate Containing Pharmaceutical Composition and Uses Thereof” (priority 2003, published 2008).

Test [1] has as its system patients suffering from brain injury (brain trauma) with increased intracranial pressure. In words: Treatment of increased intracranial pressure caused by brain trauma. It is filed as in vivo, human. How it is done: For this purpose, the composition of the invention or the mannitol was administered (infused) to a group of each twelve patients and the ICP was measured every 15 minutes.
The results of this study, in which 12 patients were either treated with mannitol or the hypertonic lactate solution of the invention, are shown in FIGS. 1 to 4 as well as in Tables 2 to 5.

Another test relates to isolated rat hearts. Nature of the test: In vitro model for ischemia (perfused isolated rat hearts). Conditions: 5 mM lactate. How it is done: In order to determine the suitability of lactate for the treatment of conditions such as ischemia-reperfusion, isolated rat harts were perfused either with perfusion medium containing 5 mM lactate or with a perfusion medium (control) containing 0.2 mM of hexanoic acid and 5.5 mM glucose in accordance with the protocol described by Garnier A. et al., J Mol Cell Cardiol 1996, 28, 1671-1682.

In test [1] (after treatment), `OC[C@@H](O)[C@@H](O)[C@H](O)[C@H](O)CO` [mannitol] returned a CPP after treatment of 73.2 ± 2.4 mm Hg and an ICP after treatment of 25.7 ± 1.7 mm Hg. The same compound yielded a CPP before treatment in test [1] (before treatment) of 67.6 ± 2.2 mm Hg. Further, the ICP before treatment in test [1] (before treatment, mean ± sem) amounted to 31 ± 1.8 mm Hg. Besides, in test [1] (brain trauma patients, survivors out of group), the number of survival is reported as 7 out of 11. Also, in test [1] (first treatment only), the “number of successful treatment (only first treatment)” value is 5 out of 11. The “patients that survived the brain trauma” value in test [1] (groups of 12 patients (FIG. 2)) worked out at 7. The “number of successful treatment (all treatments)” value in test [1] (out of all ICH episodes treated) is 14 out of 25. For the same compound, the “number of cross over” value in test [1] (patients switched to the other treatment after failure) is 4 out of 11. In addition, in test [1] (within the first 30 minutes after the treatment (FIG. 1)), the “decrease in the intracranial pressure” value was “about 20%”. Further, in test [1] (within the next 3.5 hours after the treatment (rebound, FIG. 1)), the “ICP as share of the initial untreated ICP” value is recorded as “about 90%”.
In the case of `CC(O)C(=O)O` (centres unmarked) [lactate], the rate pressure product entry in the test on isolated rat hearts (40 minutes perfusion after 40 minutes ischemia, compared to control (FIG. 9A)) is “significantly higher and prolonged increase”. Moreover, the heart rate result with isolated rat hearts (40 minutes perfusion after 40 minutes ischemia, compared to control (FIG. 9C)) is “significantly higher and prolonged increase”. Besides, in the test with isolated rat hearts (compared to control (FIG. 9B)), the diastolic pressure result is recorded as “significantly decreased”.
